Reference: US9193731B2, “Antimicrobial compounds and methods of making and using the same” (Melinta Therapeutics, Inc., priority 2009, dated 2015)

Tested on: Escherichia coli strain ATCC25922
Assay: standard microdilution assay to determine minimum inhibitory concentrations (MICs)
Assay type: cell-based
Conditions: Escherichia coli strain ATCC25922, microdilution
Summary of the method: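 Broth microdilution MIC against E. coli ATCC25922, following CLSI protocols, typically in a 100 microliter final volume. Results reported as +/− relative to a 16 micrograms/ml cutoff.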

| SMILES | E. coli ATCC25922 MIC |
| --- | --- |
| N=C(N)NCCCNCc1ccc(-n2cc3cc(-c4cc(C(=O)Nc5cccc(C(F)(F)F)c5)cc(N5CCNCC5)c4)[nH]c3nc2=O)cc1 [Compound 1069] | + (a “+” indicates that the compound has an MIC value of 16 micrograms/ml or less) |
| CC1CN(C(=O)c2ccc(-c3cn4cc(-c5ccc(CNCCCNC(=N)N)cc5)c(=O)nc4[nH]3)cc2)CCN1 (stereo not shown) [Compound 822] | + (a “+” indicates that the compound has an MIC value of 16 micrograms/ml or less) |
| N=C(N)NCCCNC(=O)c1ccc(-n2cc3cc(-c4ccc(S(=O)(=O)N(CC5CC5)C5CCNCC5)cc4)[nH]c3nc2=O)cc1 [Compound 996] | + (a “+” indicates that the compound has an MIC value of 16 micrograms/ml or less) |
| N=C(N)NCCCNCc1ccc(-n2cc3cc(-c4cccc(S(=O)(=O)N(CCCN5CCCCC5)C5CCNCC5)c4)[nH]c3nc2=O)cc1 [Compound 1027] | + (a “+” indicates that the compound has an MIC value of 16 micrograms/ml or less) |
| N=C(N)NCCCN1CC=C(n2cc3cc(-c4ccc(S(=O)(=O)N(CCCC5CCCC5)C5CCNCC5)cc4)[nH]c3nc2=O)CC1 [Compound 967] | + (a “+” indicates that the compound has an MIC value of 16 micrograms/ml or less) |
| N=C(N)NCCCNCc1ccc(-n2cc3cc(-c4cccc(OCC(F)(F)CN)c4)[nH]c3nc2=O)cc1 [Compound 1404] | − (a “−” indicates that the compound has an MIC value greater than 16 micrograms/ml) |
| NC(N)=NCCCNCc1ccc(-n2cc3cc(-c4ccc(S(=O)(=O)NC5CCNCC5)cc4)oc3nc2=O)cc1 [Compound 1242] | + (a “+” indicates that the compound has an MIC value of 16 micrograms/ml or less) |
| CCn1cc(CCCN(C2CCNCC2)S(=O)(=O)c2ccc(-c3cc4cn(-c5ccc(CNCCCNC(=N)N)cc5)c(=O)nc4[nH]3)cc2)cn1 [Compound 837] | + (a “+” indicates that the compound has an MIC value of 16 micrograms/ml or less) |
| N=C(N)NCCCNCc1ccc(-n2cc3cc(-c4cc(C(F)(F)F)cc(S(=O)(=O)NCCN)c4)[nH]c3nc2=O)cc1 [Compound 2067a] | + (a “+” indicates that the compound has an MIC value of 16 micrograms/ml or less) |
| N=C(N)NCCCNCc1ccc(-n2cc3cc(-c4cc(OC(F)(F)F)cc(C(O)CCN)c4)[nH]c3nc2=O)cc1 (stereo not shown) [Compound 2061a] | + (a “+” indicates that the compound has an MIC value of 16 micrograms/ml or less) |
| N=C(N)NCCCNCc1ccc(-n2cc3cc(-c4cc(CN)cc(OCC(F)CN)c4)[nH]c3nc2=O)cc1 (stereo not shown) [Compound 2051a] | + (a “+” indicates that the compound has an MIC value of 16 micrograms/ml or less) |
| CC1CN(C(=O)c2ccc(-c3cn4cc(-c5ccc(CNCCCN)cc5)c(=O)nc4[nH]3)cc2)CC(C)N1 (stereo not shown) [Compound 819] | + (a “+” indicates that the compound has an MIC value of 16 micrograms/ml or less) |
| CC(C)(N)CCOc1cccc(-c2cc3cn(-c4ccc(CNCCCNC(=N)N)cc4)c(=O)nc3[nH]2)c1 [Compound 1410] | + (a “+” indicates that the compound has an MIC value of 16 micrograms/ml or less) |
| N=C(N)NCCCNCc1ccc(-n2cc3cc(-c4ccc(S(=O)(=O)N(CCCn5ccc(C(F)(F)F)n5)C5CCNCC5)cc4)[nH]c3nc2=O)cc1 [Compound 934] | + (a “+” indicates that the compound has an MIC value of 16 micrograms/ml or less) |
| CN(CCCO)C(=O)c1cc(-c2cc3cn(-c4ccc(CNCCCNC(=N)N)cc4)c(=O)nc3[nH]2)cc(N2CCNCC2)c1 [Compound 940] | + (a “+” indicates that the compound has an MIC value of 16 micrograms/ml or less) |
| CC(=O)NCCc1cc(OCC(F)CN)cc(-c2cc3cn(-c4ccc(CNCCCNC(=N)N)cc4)c(=O)nc3[nH]2)c1 (stereo not shown) [Compound 2032a] | − (a “−” indicates that the compound has an MIC value greater than 16 micrograms/ml) |
| NC(N)=NCCCNCc1ccc(-n2cc3cc(-c4cccc(S(=O)(=O)N(CCc5ccc(O)cc5)C5CCNCC5)c4)[nH]c3nc2=O)cc1 [Compound 1214] | + (a “+” indicates that the compound has an MIC value of 16 micrograms/ml or less) |
| N=C(N)NCCCNCc1ccc(-n2cc3cc(-c4cc(C(=O)NCC5CCCO5)cc(N5CCNCC5)c4)[nH]c3nc2=O)cc1 (stereo not shown) [Compound 1029] | + (a “+” indicates that the compound has an MIC value of 16 micrograms/ml or less) |
| N=C(N)NCCCNCC(O)Cn1cc2cc(-c3ccc(S(=O)(=O)NC4CCNCC4)cc3)[nH]c2nc1=O (stereo not shown) [Compound 977] | + (a “+” indicates that the compound has an MIC value of 16 micrograms/ml or less) |
| N=C(N)NCCCN1CC=C(n2cc3cc(-c4ccc(S(=O)(=O)N(CC5COc6ccccc6O5)C5CCNCC5)cc4)[nH]c3nc2=O)CC1 (stereo not shown) [Compound 984] | + (a “+” indicates that the compound has an MIC value of 16 micrograms/ml or less) |
| N=C(N)NCCCNC(=O)c1ccc(-n2cc3cc(-c4ccc(S(=O)(=O)NC5CCNC5)cc4)[nH]c3nc2=O)cc1 (stereo not shown) [Compound 1310] | + (a “+” indicates that the compound has an MIC value of 16 micrograms/ml or less) |
| N=C(N)N[C@@H]1CCN(Cc2ccc(-n3cc4cc(-c5ccc(S(=O)(=O)N(CC6CCOCC6)C6CCNCC6)cc5)[nH]c4nc3=O)cc2)C1 [Compound 1206] | − (a “−” indicates that the compound has an MIC value greater than 16 micrograms/ml) |
| N=C(N)NCCCNC(=O)c1ccc(-n2cc3cc(-c4ccc(S(=O)(=O)CCCNC5CCNCC5)cc4)[nH]c3nc2=O)cc1 [Compound 1261] | + (a “+” indicates that the compound has an MIC value of 16 micrograms/ml or less) |
| N=C(N)NCCCNCc1ccc(-n2cc3cc(C4CCCN(CCCN5CCOCC5)C4)[nH]c3nc2=O)cc1 (stereo not shown) [Compound 2044a] | + (a “+” indicates that the compound has an MIC value of 16 micrograms/ml or less) |
| N=C(N)NCCCNCc1ccc(-n2cc3cc(-c4ccc(S(=O)(=O)CCCNC5CCNC5)cc4)[nH]c3nc2=O)cc1 (stereo not shown) [Compound 1330] | + (a “+” indicates that the compound has an MIC value of 16 micrograms/ml or less) |
| N=C(N)NCCCNCc1ccc(-n2cc3cc(-c4cc(CCCCN)cc(C(N)=O)c4)[nH]c3nc2=O)cc1 [Compound 2069a] | + (a “+” indicates that the compound has an MIC value of 16 micrograms/ml or less) |
| CN(Cc1cccnc1)C(=O)c1cc(-c2cc3cn(-c4ccc(CNCCCNC(=N)N)cc4)c(=O)nc3[nH]2)cc(N2CCNCC2)c1 [Compound 951] | − (a “−” indicates that the compound has an MIC value greater than 16 micrograms/ml) |

Same assay, conditions: Escherichia coli, ATCC25922, Escherichia coli strain ATCC25922, microdilution; read-out: E. coli ATCC25922 MIC

| MIC | SMILES |
| --- | --- |
| > 16 µg/mL | NCc1ccc(-n2cc3cc(-c4cccc(OCCCN5CCNCC5)c4)[nH]c3nc2=O)cc1 [Compound 1107] |
| < 16 µg/mL | N=C(N)NCCCNCc1ccc(-n2cc3cc(CCNC4CCNCC4)[nH]c3nc2=O)cc1 [Compound 719] |
| < 16 µg/mL | NCc1ccc(-n2cc3cc(-c4ccc(C(=O)NC5CCNCC5)cc4)[nH]c3nc2=O)cc1 [Compound 224] |
| > 16 µg/mL | NCCCCN1CCC(n2cc3c(nc2=O)[nH]c2ccccc23)C1 (stereo not shown) [Compound 542] |
| < 16 µg/mL | N=C(N)NCCCNCc1ccc(-n2cc3cc(-c4ccc(S(=O)(=O)N(Cc5ccncc5)C5CCNCC5)cc4)[nH]c3nc2=O)cc1 [Compound 757] |
| > 16 µg/mL | O=C(NC1CCNCC1)c1c(F)cc(-c2cc3cn(-c4ccc(CNCCCF)cc4)c(=O)nc3[nH]2)cc1F [Compound 262] |
| > 16 µg/mL | NCc1ccc(-n2cc3cc(-c4cccc(S(=O)(=O)N(CCCc5cn[nH]c5)C5CCNCC5)c4)[nH]c3nc2=O)cc1 [Compound 1225] |
| > 16 µg/mL | NCCCN(CCCN)Cc1ccc(-n2cc3cc(CCc4ccccc4)[nH]c3nc2=O)cc1 [Compound 183] |
| > 16 µg/mL | NCCOc1cccc(-c2cc3cn(-c4ccc(CN)cc4)c(=O)nc3[nH]2)c1 [Compound 1144] |
| < 16 µg/mL | CN1CCC(NC(=O)c2ccc(-c3cc4cn(-c5ccc(CN(CCCN)CCCN)cc5)c(=O)nc4[nH]3)cc2)CC1 [Compound 204] |
| < 16 µg/mL | NC(=O)/N=C(/N)NCCNCc1ccc(-n2cc3cc(-c4ccc(C(=O)NC5CCNCC5)cc4)[nH]c3nc2=O)cc1 [Compound 229] |
| > 16 µg/mL | NCc1ccc(-n2cc3cc(-c4ccc(S(=O)(=O)N(CCCn5cccn5)C5CCNCC5)cc4)[nH]c3nc2=O)cc1 [Compound 1035] |
| > 16 µg/mL | NCCCNCc1ccc(-n2cc3cc(Cc4ccccc4)[nH]c3nc2=O)cc1 [Compound 621] |
| < 16 µg/mL | NCCCNCc1ccc(-n2cc3cc(-c4cc(C(=O)Nc5ccc(F)cc5)cc(N5CCNCC5)c4)[nH]c3nc2=O)cc1 [Compound 760] |
| > 16 µg/mL | NCCCc1cccc(-c2cc3cn(-c4ccc(C(N)C(F)(F)F)cc4)c(=O)nc3[nH]2)c1 (stereo not shown) [Compound 2080a] |
| < 16 µg/mL | N=C(N)CCCOc1cccc(-c2cc3cn(-c4ccc(CNCCCN)cc4)c(=O)nc3[nH]2)c1 [Compound 1216] |
| > 16 µg/mL | N=C(N)NCCCCCN1CCN(c2cn3cc(-c4ccc(Br)cc4)[nH]c3nc2=O)CC1 [Compound 882] |
| < 16 µg/mL | CS(=O)(=O)c1ccc(-c2cn3cc(-c4ccc(CN(CCCN)CCCNC(=N)N)cc4)c(=O)nc3[nH]2)cc1 [Compound 635] |
| > 16 µg/mL | NCCCNCc1ccc(-c2cn3cc(-c4ccc(C(=O)N5CCS(=O)(=O)CC5)cc4)[nH]c3nc2=O)cc1 [Compound 698] |
| > 16 µg/mL | CC(=O)NCCCN1CCCC(c2cc3cn(-c4ccc(CNCCCNC(=N)N)cc4)c(=O)nc3[nH]2)C1 (stereo not shown) [Compound 2021a] |
| > 16 µg/mL | N=C(N)NCCCNCc1ccc(-c2cn3cc(-c4ccc(S(=O)(=O)N5CCOCC5)cc4)[nH]c3nc2=O)cc1 [Compound 762] |
| > 16 µg/mL | NCc1ccc(-n2cc3cc(-c4ccc(S(=O)(=O)N(CCCN5Cc6ccccc6C5)C5CCNCC5)cc4)[nH]c3nc2=O)cc1 [Compound 1065] |
| > 16 µg/mL | NCCCN(CCCN)Cc1ccc(-n2cc3cc[nH]c3nc2=O)cc1 [Compound 154] |
| > 16 µg/mL | NCCCCCN1CCN(c2cn3cc(-c4ccc(S(=O)(=O)N5CCNCC5)cc4)[nH]c3nc2=O)CC1 [Compound 900] |
| > 16 µg/mL | CO[C@@H](CN)COc1cccc(-c2cc3cn(-c4ccc(CN)cc4)c(=O)nc3[nH]2)c1 [Compound 1444] |
